Data published in ChEMBL document CHEMBL5614430, “Discovery, synthesis and SAR of 2-acyl-1-biarylmethyl pyrazolidines, dual orexin receptor antagonists designed as fast and short-acting sleeping drugs” (Bioorg Med Chem, 2024).

Experiments:
in vitro = details: dog, MDCK-MDR1, Papp
physchem = details: buffer, pH 7.4
in vivo [1] = details: Beagle, dog, po, 10 mg/kg
in vivo [2] = details: Beagle, dog, iv, 1 mg/kg
in vivo [3] = details: Beagle, dog, po, 10 mg/kg; remark: listed apart in the source
in vivo [4] = details: Beagle, dog, po, 10 mg/kg; remark: listed apart in the source
in vivo [5] = details: Beagle, dog, iv, 1 mg/kg; remark: listed apart in the source
in vivo [6] = details: Beagle, dog, po, 10 mg/kg; remark: listed apart in the source

| Compound | Papp A→B (in vitro) | logD (physchem) | also measured |
| --- | --- | --- | --- |
| COc1cc(CN2[C@H]3c4ccccc4OC[C@H]3CN2C(=O)C2CCCCC2)cc(OC)c1 | 17 ×10⁻⁶ cm/s | 3.8 | – |
| Cc1ccc(-n2nccn2)c(C(=O)N2CCCN2Cc2ccn(-c3ccccc3)n2)c1 | – | – | AUC (in vivo [1]): 1040 ng·h/mL; Vd (in vivo [2]): 0.8 L/kg; bioavailability (in vivo [3]): 10%; Tmax (in vivo [4]): 3.55 h; clearance (in vivo [5]): 17 mL/min/kg; Cmax (in vivo [6]): 287 ng/mL |
| O=C(C1CCCCC1)N1C[C@@H]2COc3ccccc3[C@@H]2N1Cc1cccc(-c2ncon2)c1 | – | > 4.1 | – |
| Cn1ccc(C(=O)N2C[C@@H]3COc4cc(F)ccc4[C@@H]3N2Cc2cccc(-c3ncccn3)c2)n1 (racemic) | 0.78 ×10⁻⁶ cm/s | 2.8 | – |
| Cn1ccc(C(=O)N2C[C@@H]3CCc4cc(F)ccc4[C@@H]3N2Cc2cccc(-c3ncccn3)c2)n1 (racemic) | 9.3 ×10⁻⁶ cm/s | 3.3 | – |
